Results reported in ChEMBL document CHEMBL1177823, “7',8'-Dihydroobolactone, a typanocidal alpha-pyrone from the rainforest tree Cryptocarya obovata” (Bioorg Med Chem Lett, 2010).

Columns and labels:
[1] = tested on: Trypanosoma brucei brucei; experiment: Antitrypanosomal activity against Trypanosoma brucei brucei; format: functional, organism-based
[2] = tested on: HEK293; experiment: Cytotoxicity against […] cells after 72 hrs by Alamar blue assay; format: cell-based; conditions: Homo sapiens, HEK293, 72 h
[3] = Selectivity index, ratio of IC50 for HEK293 cells to IC50 for Trypanosoma brucei brucei; format: toxicity, cell-based; conditions: human, HEK293 cells versus Trypanosoma brucei brucei; read-out: Selectivity Index
[4] = tested on: MCF7; experiment: Cytotoxicity against human MCF7 cells after 72 hrs by Alamar blue assay; format: functional, cell-based; conditions: MCF7, 72 h
[5] = tested on: A549; experiment: Cytotoxicity against human A549 cells after 72 hrs by Alamar blue assay; format: functional, cell-based; conditions: A549, 72 h
[6] = tested on: HeLa; experiment: Cytotoxicity against human HeLa cells after 72 hrs by Alamar blue assay; format: functional, cell-based
[7] = Cytotoxicity against […] cells at 70 uM after 72 hrs by Alamar blue assay; format: cell-based; conditions: human, HEK293 cells; read-out: INH
[8] = tested on: Trypanosoma brucei brucei; experiment: Antitrypanosomal activity against Trypanosoma brucei brucei at 167 uM; format: functional

IC50 [1] [µM] | Compound | IC50 [2] [µM] | selectivity ratio [3] | IC50 [4] [µM] | IC50 [5] [µM] | IC50 [6] [µM] | cytotoxicity at 72 h, 70 µM [7] [%] | inhibition at 167 µM [8] [%]
0.025 | N=C(N)c1ccc(/N=N/Nc2ccc(C(=N)N)cc2)cc1 [DIMINAZENE] | > 80 |  |  |  |  |  | 
5.3 | O=C1C=C(/C=C/c2ccccc2)O[C@H](C[C@H]2CC=CC(=O)O2)C1 [OBOLACTONE] | 13.2 | 2.5 | 32 | 43 | 24 |  | 
0.007 | N=C(N)c1ccc(OCCCCCOc2ccc(C(=N)N)cc2)cc1 [PENTAMIDINE] |  |  |  |  |  | 58.3 | 
0.037 | COc1ccc(C[C@H](N)C(=O)N[C@H]2[C@@H](O)[C@H](n3cnc4c(N(C)C)ncnc43)O[C@@H]2CO)cc1 [PUROMYCIN] | 0.42 |  |  |  |  |  | 
2.8 | O=C1C=C(CCc2ccccc2)O[C@H](C[C@H]2CC=CC(=O)O2)C1 | 20.4 | 7.4 |  | 78 | 43 |  | 
 | O=c1ccc2cc3ccoc3cc2o1 [PSORALEN] | > 167 |  |  |  |  |  | 50.3
